Results from patent US20220289688A1, “RNA-TARGETING LIGANDS, COMPOSITIONS THEREOF, AND METHODS OF MAKING AND USING THE SAME” (THE UNIVERSITY OF NORTH CAROLINA AT CHAPEL HILL, priority 2019, published 2022).
Several values for one entry are separate records, joined by “and”; a condition that tells them apart may be missing. Equal entries are not always repeated. Entries after “also recorded” stand apart in the source; their conditions may differ. Where two headings read alike, the source gives them in different places. One block for each compound: values may come before it.

Legend:
TPP riboswitch RNA = assay: Isothermal titration calorimetry (ITC), ligand titrated into RNA; format: binding; conditions: for Kd / Binding affinity relative to a named comparator compound / Kd (μM): ITC; for Effect of modification on RNA binding affinity (FIG. 5): linked fragments 17 and 31, dissociation constants by ITC; for Binding affinity relative to a named comparator compound: comparator named in value
[1] = Solubility at concentrations required for ITC; format: physicochemical; conditions: ITC buffer
Procedure: (§1) ITC experiments were performed using a Microcal PEAQ-ITC automated instrument (Malvern Analytical) under RNase-free conditions^41. In vitro transcribed RNA was exchanged into folding buffer containing 100 mM CHES, pH 8.0, 200 mM potassium acetate, and 3 mM MgCl2 using centrifugal concentration (Amicon Ultra centrifugal filters, 10K MWCO, Millipore-Sigma). Ligands were dissolved into the same buffer (to minimize heat of mixing upon addition of ligand to RNA) at a concentration 10-20 times the desired experimental concentration of RNA. RNA concentration was quantified (Nanodrop UV-VIS spectrometer; ThermoFisher Scientific), diluted to 1-10 times the expected […] in buffer, and the diluted RNA was re-quantified to confirm the final experimental RNA concentration. The RNA, diluted in folding buffer, was heated at 65° C. for 5 minutes, placed on ice for 5 minutes, and allowed to fold at 37° C. for 15 minutes. if needed, the primary binding ligand (for example, 2) was pre-bound to the RNA by adding 0.1 volume at 10 times the desired final concentration of the bound ligand, followed by incubation at room temperature for 10 minutes.

[2] = test system: TPP riboswitch region of the screening construct; assay: SHAPE second-fragment screen of RNA construct pre-bound to primary fragment; format: binding; conditions: RNA pre-bound to 2 or S12; fragment 1 mM
Procedure: For the first-fragment-ligand screen, 5 pmol of RNA per well were diluted to […] in RNase-free water on a 4° C. cooling block. The plate was heated at 95° C. for 2 minutes, immediately followed by snap cooling at 4° C. for 5 minutes. To each well was added 19.6 μL of 2× folding buffer (final concentrations 50 mM HEPES pH 8.0, 200 mM potassium acetate, and 10 mM MgCl2), and plates were incubated at 37° C. for 30 minutes. […] To combine the target RNA with fragment, 24.3 μL of RNA solution or RNA plus primary binding fragment were added to wells containing 2.7 μL of 10× screening fragments (in DMSO to yield a final fragment concentration of 1 mM). Solutions were mixed thoroughly by pipetting and incubated for 10 minutes at 37° C. […]
Once screening of test fragments is complete, statistical tests are carried out to identify differences in modification rates of a given nucleotide. […] That is, if m1 modifications of a tested nucleotide were counted among n1 reads in sample 1 and m2 modifications were counted among n2 reads in sample 2, the tested null hypothesis predicts that among all the counted modifications (m1+m2), the proportion of modifications in sample 1 will be p1=n1/(n1+n2). […]

2-TPP RNA complex = assay: ITC with primary binding fragment pre-bound to the RNA; conditions: for Binding cooperativity with 2: ITC in presence and absence of pre-bound 2; for Kd: ITC
Procedure: as §1
Each ITC experiment involved two runs: one in which the ligand was titrated into RNA (the experimental trace) and one in which the same ligand was titrated into buffer (the control trace). ITC experiments were performed using the following parameters: 25° C. cell temperature, 8 μCal/sec reference power, 750 RPM stirring speed, high feedback mode, 0.2 μL initial injection, followed by 19 injections of 2 μL. Each injection required 4 seconds to complete, and there was a 180-second spacing between injections.
ITC data was analyzed using MicroCal PEAQ-ITC Analysis Software (Malvern Analytical). First, the baseline for each injection peak was manually adjusted to resolve any incorrectly selected injection endpoints. Second, the control trace was subtracted from the experimental trace by point-to-point subtraction. Third, a least-squares regression line was fit to the data using the Levenberg-Marquardt algorithm. In the case of weakly binding ligands (>500 μM), N was manually set to 1.0 to enable fitting of low c-value curves.

[3] = primary-screen hits, Table 1, value ± error, read-out: Kd
[4] = fragment 2 analogs, pendant groups, Table 2B, read-out: Kd
[5] = no ligand pre-bound, Table 6, read-out: Kd (mM) No ligand bound
[6] = primary fragment pre-bound to TPP riboswitch RNA, Table 6, read-out: Kd (mM) 5 pre-bound
[7] = fragment 5 analogs, pendant groups, Table 4, read-out: Kd
[8] = fragment 5 analogs, pendant groups, Table 4

Kd (TPP riboswitch RNA; [3]): 11 ± 0.2 µM
Structure (SMILES): C#Cc1ccc2nccnc2c1 [Compound 1]

Structure (SMILES): Nc1ccc2nccnc2c1 [Compound 2]
Kd (TPP riboswitch RNA; fragment 2 analogs, quinoxaline core modifications, Table 2A, read-out: Kd): 25 µM
Kd (TPP riboswitch RNA; [3]): 25 ± 6 µM
Kd (TPP riboswitch RNA; read-out: Kd): 25 µM

Kd (TPP riboswitch RNA; [3]): 95 ± 3 µM
Structure (SMILES): COc1ccc2nsnc2c1 [Compound 3]

Kd (TPP riboswitch RNA; [3]): 220 ± 10 µM
Structure (SMILES): NCc1ccc(-c2csnn2)cc1 [Compound 4]

Kd (TPP riboswitch RNA; [3]): 265 ± 80 µM
Structure (SMILES): COC(=O)c1ccc(Cl)nc1 [Compound 5]

Kd (TPP riboswitch RNA; fragment 5 analogs, pyridine core modifications, Table 3, read-out: Kd): 266 µM
Kd (TPP riboswitch RNA; [3]): 650 ± 100 µM
Structure (SMILES): c1cc2[nH]cnc2cn1 [Compound 6]

Solubility at concentrations required for ITC [1]: insoluble
Structure (SMILES): O=C1CC(C(F)(F)F)=NN1 [Compound 7]

Solubility at concentrations required for ITC [1]: insoluble
Structure (SMILES): O=C(O)c1cncc(-c2cccs2)c1 [Compound 8]

Kd (TPP riboswitch RNA; [3]): 0.029 ± 0.002 µM
Structure (SMILES): Cc1ncc(C[n+]2csc(CCOP(=O)([O-])OP(=O)(O)O)c2C)c(N)n1 [Compound 9, thiamine pyrophosphate, reference compound]

Kd (TPP riboswitch RNA; [4]): 18 µM
Structure (SMILES): OCc1ccc2nccnc2c1 [Compound 15]

Kd (TPP riboswitch RNA; [4]): 35 µM
Structure (SMILES): O=Cc1ccc2nccnc2c1 [Compound 18]

Kd (TPP riboswitch RNA; [4]): 58 µM
Kd (TPP riboswitch RNA; read-out: Kd): 5 µM
Structure (SMILES): COC(=O)c1ccc2nccnc2c1 [Compound 19]

Kd (TPP riboswitch RNA; [4]): 33 µM
Structure (SMILES): Cc1ccc2nccnc2c1 [Compound 20]

Kd (TPP riboswitch RNA; [4]): 75 µM
Structure (SMILES): Nc1cccc2nccnc12 [Compound 21]

Kd (TPP riboswitch RNA; [4]): 220 µM
Structure (SMILES): Fc1cccc2nccnc12 [Compound 23]

Kd (TPP riboswitch RNA; [4]): 379 µM
Structure (SMILES): Nc1cnc2ccccc2n1 [Compound 24]

Kd (TPP riboswitch RNA; [4]): 600 µM
Structure (SMILES): NC(=O)c1cnc2ccccc2n1 [Compound 25]

Structure (SMILES): Cc1cc(N2CCNCC2)c2ccccc2n1 [Compound 28]
Solubility at concentrations required for ITC [1]: insoluble

Structure (SMILES): O=C(O)c1csc2ccc(Cl)cc12 [Compound 29]
SHAPE result of second-round screen [2]: caused changes in other areas of the RNA consistent with nonspecific interactions

Structure (SMILES): c1cc(N2CCNCC2)ccn1 [Compound 31]
Kd (TPP riboswitch RNA; fragment alone, read-out: Kd): 10000 µM and ≥ 10000 µM
Kd (TPP riboswitch RNA; [5]): > 10000 µM
Binding cooperativity with 2 (2-TPP RNA complex): clear, but modest, binding cooperativity with 2
Kd (2-TPP RNA complex; 2 pre-bound to the TPP riboswitch RNA, read-out: Kd): ~3 mM
Kd (2-TPP RNA complex; [6]): 3 mM

Structure (SMILES): Cc1cnccc1N1CCNCC1 [Compound 32]
Kd (TPP riboswitch RNA; [5]): > 10000 µM
Binding cooperativity with 2 (2-TPP RNA complex): clear, but modest, binding cooperativity with 2
Kd (2-TPP RNA complex; [6]): 4 mM

Kd (TPP riboswitch RNA; [5]): > 10000 µM
Structure (SMILES): NCCCN1CCN(c2ccncc2)CC1 [Compound 33]

Structure (SMILES): Nc1cnccc1N1CCNCC1 [Compound 34]
Kd (TPP riboswitch RNA; [5]): > 10000 µM

Effect of modification on RNA binding affinity (FIG. 5) (TPP riboswitch RNA): negative modification
Structure (SMILES): O=C(CCC(=O)Nc1ccc2nccnc2c1)NO [Compound 35]

Effect of modification on RNA binding affinity (FIG. 5) (TPP riboswitch RNA): increase RNA binding affinity
Structure (SMILES): O=C(CCNc1ccc2nccnc2c1)NO [Compound 36]
Binding affinity relative to a named comparator compound (TPP riboswitch RNA): fivefold higher binding affinity than the amide-linked version; also recorded: affinity similar to that of the parent fragment 17

Kd (TPP riboswitch RNA; read-out: Kd (affinity)): 0.625 µM
Effect of modification on RNA binding affinity (FIG. 5) (TPP riboswitch RNA): increase RNA binding affinity
Structure (SMILES): c1cc(N2CCCCC2)c(NCc2ccc3nccnc3c2)cn1 [Compound 37]

Binding affinity relative to a named comparator compound (TPP riboswitch RNA): reduced affinity relative to compound 37
Effect of modification on RNA binding affinity (FIG. 5) (TPP riboswitch RNA): neutral modifications
Structure (SMILES): CN(C)CCNCc1ccc2nccnc2c1 [Compound 38]

Binding affinity relative to a named comparator compound (TPP riboswitch RNA): reduces affinity relative to compound 37
Effect of modification on RNA binding affinity (FIG. 5) (TPP riboswitch RNA): negative modification
Structure (SMILES): c1cc(N2CCNCC2)c(CNCc2ccc3nccnc3c2)cn1 [Compound 39]

Binding affinity relative to a named comparator compound (TPP riboswitch RNA): reduces affinity relative to compound 37
Effect of modification on RNA binding affinity (FIG. 5) (TPP riboswitch RNA): negative modification
Structure (SMILES): c1cnc2cc(CNc3cncc(N4CCNCC4)c3)ccc2n1 [Compound 40]

Kd (TPP riboswitch RNA; [7]): 440 µM
Structure (SMILES): COC(=O)c1ccc(Br)cc1 [compound 85]

Structure (SMILES): COC(=O)c1ccc([N+](=O)[O-])cc1 [compound 86]
Kd (TPP riboswitch RNA; [7]): 390 µM

Kd (TPP riboswitch RNA; [7]): 1800 µM
Structure (SMILES): CCOc1ccc(C(=O)OC)cc1 [compound 87]

Structure (SMILES): COC(=O)c1ccc(N)cc1 [compound 88]
Kd (TPP riboswitch RNA; [7]): 1100 µM

Kd (μM) (TPP riboswitch RNA; [8]): no binding
Structure (SMILES): COC(=O)c1ccc(C(F)(F)F)cc1 [compound 89]

Kd (μM) (TPP riboswitch RNA; [8]): no binding
Structure (SMILES): COC(=O)c1ccc(Oc2ccccc2)cc1 [compound 810]

Kd (TPP riboswitch RNA; [7]): 820 µM
Structure (SMILES): COC(=O)c1ccc(Cl)c(Cl)c1 [compound 811]

Kd (TPP riboswitch RNA; [7]): 93 µM
Structure (SMILES): COC(=O)c1ccc(Cl)cc1Cl [compound 812]
Binding affinity relative to a named comparator compound (TPP riboswitch RNA): approximately threefold higher affinity for the TPP riboswitch than did fragment 5

Kd (TPP riboswitch RNA; [7]): 600 µM
Structure (SMILES): CCOC(=O)c1ccc(Cl)cc1 [compound 813]

Kd (TPP riboswitch RNA; [7]): 1300 µM
Structure (SMILES): OCc1ccc(Cl)cc1 [compound 814]

Kd (TPP riboswitch RNA; [7]): 1800 µM
Structure (SMILES): NC(=O)c1ccc(Cl)cc1 [compound 815]

Kd (TPP riboswitch RNA; [7]): 1300 µM
Structure (SMILES): NS(=O)(=O)c1ccc(Cl)cc1 [compound 816]

Kd (μM) (TPP riboswitch RNA; [8]): no binding
Structure (SMILES): CCS(=O)(=O)c1ccc(Cl)cc1 [compound 817]

Structure (SMILES): CN(C)C(=O)c1ccc(Cl)cc1 [compound 818]
Kd (μM) (TPP riboswitch RNA; [8]): no binding
